In series [1] the target is T1, Platelet-derived growth factor receptor (Homo sapiens, UniProt P09619+P16234). As to the kind of experiment: Inhibition of Platelet-derived growth factor receptor. The series is classed as protein-complex assay.
In series [2] the target is Tyrosine-protein kinase JAK2 (Homo sapiens, UniProt O60674). As to the kind of experiment: Inhibition of Janus kinase 2.
The nature of series [3]: % Bioavailability after 4 day of the drug administration in rats. The class given is ADME, organism-based. Conditions: rat, in vivo.
Series [4] in a line: Inhibition of Collagen production. The class given is functional.
For series [5], the target named is Hepatocyte growth factor receptor (Homo sapiens) (UniProt P08581). As to the kind of experiment: Inhibition of Hepatocyte growth factor receptor at 30 uM. The class given is cell-based.
The target of series [6] is cAMP-dependent protein kinase (PKA) (Homo sapiens) (UniProt P22694+P17612+P22612). As to the kind of experiment: Inhibition of Protein kinase A at 100 uM. The class given is protein assay.
Series [7] deals with c-Jun N-terminal kinase, JNK (Homo sapiens, UniProt P45983+P53779+P45984). As to the kind of experiment: Inhibition of JNK, c-Jun N-terminal kinase. The series is classed as protein assay.
Series [8] deals with Insulin-like growth factor 1 receptor (Homo sapiens, UniProt P08069). As to the kind of experiment: Inhibitory concentration against IGF kinase was determined.
Series [9] deals with T2, Tyrosine-protein kinase ZAP-70 (Homo sapiens) (UniProt P43403).
T2 sequence (whole entry): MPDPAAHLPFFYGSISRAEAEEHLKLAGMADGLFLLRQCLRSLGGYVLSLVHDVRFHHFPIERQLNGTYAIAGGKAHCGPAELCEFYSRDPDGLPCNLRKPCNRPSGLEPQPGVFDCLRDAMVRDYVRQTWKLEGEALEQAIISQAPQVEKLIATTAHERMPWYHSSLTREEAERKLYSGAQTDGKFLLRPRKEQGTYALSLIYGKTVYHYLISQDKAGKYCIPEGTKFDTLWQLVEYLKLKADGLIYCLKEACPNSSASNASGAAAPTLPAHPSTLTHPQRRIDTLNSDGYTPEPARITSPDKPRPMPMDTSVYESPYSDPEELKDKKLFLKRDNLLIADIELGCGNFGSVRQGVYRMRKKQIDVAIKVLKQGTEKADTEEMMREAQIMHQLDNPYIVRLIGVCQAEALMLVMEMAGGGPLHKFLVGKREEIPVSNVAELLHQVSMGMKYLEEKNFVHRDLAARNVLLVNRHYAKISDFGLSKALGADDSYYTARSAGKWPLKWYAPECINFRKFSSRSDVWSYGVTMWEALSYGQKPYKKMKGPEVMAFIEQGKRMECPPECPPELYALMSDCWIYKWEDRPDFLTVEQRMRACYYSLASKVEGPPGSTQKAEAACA
As to the kind of experiment: Inhibition of Zeta-chain (TCR) associated protein kinase 70kDa, Zap70 at 10 uM.

For series [10], the target named is Tyrosine-protein kinase SYK (Homo sapiens) (UniProt P43405). As to the kind of experiment: Inhibition of Syk tyrosine kinase at 10 uM.
Series [11] has as its target Macrophage colony-stimulating factor 1 receptor (Homo sapiens) (UniProt P07333). As to the kind of experiment: Inhibition of Colony stimulating factor 1 receptor at 30 uM.
Series [12] concerns the target T3, Tyrosine-protein kinase JAK3 (Homo sapiens, UniProt P52333).
T3 sequence (P52333 whole entry): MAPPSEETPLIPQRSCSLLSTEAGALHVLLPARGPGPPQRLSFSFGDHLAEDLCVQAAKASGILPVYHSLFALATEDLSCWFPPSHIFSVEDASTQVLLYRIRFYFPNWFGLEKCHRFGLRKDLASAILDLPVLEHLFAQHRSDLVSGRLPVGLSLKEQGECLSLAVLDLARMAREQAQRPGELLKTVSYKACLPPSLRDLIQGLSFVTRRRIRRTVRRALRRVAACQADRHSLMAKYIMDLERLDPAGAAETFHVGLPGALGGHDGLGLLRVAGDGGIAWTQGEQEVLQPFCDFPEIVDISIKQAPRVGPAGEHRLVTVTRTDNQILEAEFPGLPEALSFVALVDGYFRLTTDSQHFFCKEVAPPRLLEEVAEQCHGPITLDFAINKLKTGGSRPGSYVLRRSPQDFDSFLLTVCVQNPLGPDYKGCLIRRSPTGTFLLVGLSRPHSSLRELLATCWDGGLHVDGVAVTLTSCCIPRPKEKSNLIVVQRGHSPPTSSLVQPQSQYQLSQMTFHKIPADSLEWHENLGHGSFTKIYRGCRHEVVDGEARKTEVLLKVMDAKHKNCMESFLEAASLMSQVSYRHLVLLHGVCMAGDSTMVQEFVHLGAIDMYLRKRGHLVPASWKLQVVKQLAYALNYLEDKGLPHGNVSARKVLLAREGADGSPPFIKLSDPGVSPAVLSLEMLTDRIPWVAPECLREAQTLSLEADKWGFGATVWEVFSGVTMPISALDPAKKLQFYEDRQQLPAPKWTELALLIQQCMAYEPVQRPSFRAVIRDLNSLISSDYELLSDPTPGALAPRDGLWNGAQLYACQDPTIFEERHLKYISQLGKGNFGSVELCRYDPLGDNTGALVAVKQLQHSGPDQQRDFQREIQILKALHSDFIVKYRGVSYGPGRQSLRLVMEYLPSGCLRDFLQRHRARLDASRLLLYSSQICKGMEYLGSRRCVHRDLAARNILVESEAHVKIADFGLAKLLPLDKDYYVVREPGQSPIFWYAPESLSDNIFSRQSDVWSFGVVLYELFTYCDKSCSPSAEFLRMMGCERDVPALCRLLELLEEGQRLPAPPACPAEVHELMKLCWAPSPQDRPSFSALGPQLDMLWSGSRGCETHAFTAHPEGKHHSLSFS
As to the kind of experiment: Inhibition of Janus kinase 3.

Series [13] concerns the target Vascular endothelial growth factor receptor (Homo sapiens) (UniProt P17948+P35916+P35968). As to the kind of experiment: Inhibition of VEGF receptor kinase at 30 uM. The series is classed as protein assay.
Series [14] has as its target Protein kinase C (PKC) (Homo sapiens) (UniProt O94806+P41743+P17252+P05129+Q05655+P05771+Q05513+Q02156+P24723+Q15139+Q04759). As to the kind of experiment: Inhibition of Protein kinase C at 100 uM. The class given is protein assay.
The nature of series [15]: % Bioavailability after 1 day of the drug administration in rats. Conditions: rat, in vivo. The class given is ADME, organism-based.
Series [16] addresses T1, Platelet-derived growth factor receptor. As to the kind of experiment: Inhibition of Platelet-derived growth factor receptor at 1 uM. The class given is protein-complex assay.
In another series the test system is HASMC. As to the kind of experiment: Inhibition of mitogenesis in human aortic smooth muscle cells (HASMC). The series is classed as functional, cell-based.
A short description of series [17]: Bioavailability in rat after 4 day dosing. The class given is ADME, organism-based. Conditions: in vivo.
Series [18] in a line: Bioavailability in rat after 1 day dosing. The series is classed as ADME, organism-based. Particulars: in vivo.
The target in series [19] is T1, Platelet-derived growth factor receptor. As to the kind of experiment: Inhibition of Platelet-derived growth factor receptor at 10 uM. The series is classed as protein-complex assay.

pIC50: −log10 of the molar value. Some results are limits rather than exact numbers.

Chain of Insulin-like growth factor 1 receptor (P08069 31-736 limits assumed): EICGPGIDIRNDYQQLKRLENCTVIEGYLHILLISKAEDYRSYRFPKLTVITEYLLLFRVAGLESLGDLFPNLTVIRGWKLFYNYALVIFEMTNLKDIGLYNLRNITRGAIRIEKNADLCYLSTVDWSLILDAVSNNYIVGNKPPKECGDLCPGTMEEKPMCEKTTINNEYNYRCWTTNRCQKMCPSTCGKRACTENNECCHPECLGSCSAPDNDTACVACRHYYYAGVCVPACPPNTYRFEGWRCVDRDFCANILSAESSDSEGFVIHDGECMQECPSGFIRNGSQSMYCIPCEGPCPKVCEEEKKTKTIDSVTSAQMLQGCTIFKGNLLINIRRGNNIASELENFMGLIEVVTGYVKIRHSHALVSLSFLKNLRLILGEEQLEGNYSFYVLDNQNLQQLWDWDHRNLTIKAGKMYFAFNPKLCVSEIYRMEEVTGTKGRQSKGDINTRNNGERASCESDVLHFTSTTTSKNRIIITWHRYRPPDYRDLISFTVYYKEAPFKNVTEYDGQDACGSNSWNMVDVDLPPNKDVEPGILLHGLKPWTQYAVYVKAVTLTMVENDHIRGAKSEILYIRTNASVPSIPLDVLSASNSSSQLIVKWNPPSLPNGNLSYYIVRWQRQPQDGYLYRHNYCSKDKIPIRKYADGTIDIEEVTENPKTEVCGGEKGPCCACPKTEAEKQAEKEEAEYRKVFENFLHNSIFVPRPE
Chain of Insulin-like growth factor 1 receptor (P08069 741-1367 limits assumed): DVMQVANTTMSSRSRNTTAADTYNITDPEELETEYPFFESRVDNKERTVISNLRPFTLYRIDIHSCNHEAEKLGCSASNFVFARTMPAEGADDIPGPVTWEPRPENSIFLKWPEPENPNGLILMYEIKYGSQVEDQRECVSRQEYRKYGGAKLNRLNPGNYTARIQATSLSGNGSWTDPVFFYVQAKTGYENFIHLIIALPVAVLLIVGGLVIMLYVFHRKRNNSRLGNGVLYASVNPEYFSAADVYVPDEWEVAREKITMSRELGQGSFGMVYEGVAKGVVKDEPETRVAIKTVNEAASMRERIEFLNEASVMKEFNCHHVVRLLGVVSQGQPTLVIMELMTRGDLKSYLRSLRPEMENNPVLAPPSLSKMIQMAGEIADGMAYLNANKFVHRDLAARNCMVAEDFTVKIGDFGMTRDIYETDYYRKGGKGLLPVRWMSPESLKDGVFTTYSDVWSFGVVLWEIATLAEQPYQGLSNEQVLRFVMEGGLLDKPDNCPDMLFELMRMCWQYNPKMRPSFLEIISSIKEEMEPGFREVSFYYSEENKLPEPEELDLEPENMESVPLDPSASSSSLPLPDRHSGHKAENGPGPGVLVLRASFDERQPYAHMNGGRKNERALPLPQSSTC
Chain of Hepatocyte growth factor receptor (Homo sapiens) (P08581 whole entry): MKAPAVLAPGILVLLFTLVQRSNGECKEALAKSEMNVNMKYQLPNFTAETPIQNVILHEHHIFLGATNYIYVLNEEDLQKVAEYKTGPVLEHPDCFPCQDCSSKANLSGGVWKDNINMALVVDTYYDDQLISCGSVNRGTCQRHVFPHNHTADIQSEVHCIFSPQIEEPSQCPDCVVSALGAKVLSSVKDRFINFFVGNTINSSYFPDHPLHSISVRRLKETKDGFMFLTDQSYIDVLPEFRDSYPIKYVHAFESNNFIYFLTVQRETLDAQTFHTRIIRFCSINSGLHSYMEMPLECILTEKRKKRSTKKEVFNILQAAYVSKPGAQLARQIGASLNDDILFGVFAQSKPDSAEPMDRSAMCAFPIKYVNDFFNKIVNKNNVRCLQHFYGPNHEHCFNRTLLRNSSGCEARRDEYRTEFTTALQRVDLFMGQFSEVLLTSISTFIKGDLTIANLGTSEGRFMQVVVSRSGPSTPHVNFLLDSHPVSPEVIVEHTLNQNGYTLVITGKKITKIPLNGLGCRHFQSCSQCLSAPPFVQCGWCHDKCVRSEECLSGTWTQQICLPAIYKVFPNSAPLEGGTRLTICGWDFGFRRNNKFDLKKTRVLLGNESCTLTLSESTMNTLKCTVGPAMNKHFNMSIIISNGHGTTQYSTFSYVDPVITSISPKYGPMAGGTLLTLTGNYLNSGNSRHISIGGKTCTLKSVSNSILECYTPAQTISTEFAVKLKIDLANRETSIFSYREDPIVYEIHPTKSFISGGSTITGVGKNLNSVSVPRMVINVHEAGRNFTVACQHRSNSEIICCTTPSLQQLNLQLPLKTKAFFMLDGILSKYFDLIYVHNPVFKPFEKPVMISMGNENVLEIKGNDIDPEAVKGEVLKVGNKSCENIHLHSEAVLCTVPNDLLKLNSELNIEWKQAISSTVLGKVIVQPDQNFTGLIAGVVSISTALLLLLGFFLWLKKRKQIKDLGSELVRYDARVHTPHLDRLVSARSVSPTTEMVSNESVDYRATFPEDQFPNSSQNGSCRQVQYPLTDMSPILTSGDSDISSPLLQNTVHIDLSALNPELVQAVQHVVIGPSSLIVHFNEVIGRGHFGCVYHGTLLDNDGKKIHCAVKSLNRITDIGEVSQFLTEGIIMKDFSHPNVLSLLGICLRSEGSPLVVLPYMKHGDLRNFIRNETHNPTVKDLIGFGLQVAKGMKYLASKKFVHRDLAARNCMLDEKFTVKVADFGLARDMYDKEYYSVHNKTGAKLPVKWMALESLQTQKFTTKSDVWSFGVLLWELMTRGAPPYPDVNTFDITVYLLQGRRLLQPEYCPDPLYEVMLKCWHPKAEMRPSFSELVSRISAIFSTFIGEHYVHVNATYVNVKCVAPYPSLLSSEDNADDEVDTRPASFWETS
Chain of Tyrosine-protein kinase JAK2 (O60674 whole entry): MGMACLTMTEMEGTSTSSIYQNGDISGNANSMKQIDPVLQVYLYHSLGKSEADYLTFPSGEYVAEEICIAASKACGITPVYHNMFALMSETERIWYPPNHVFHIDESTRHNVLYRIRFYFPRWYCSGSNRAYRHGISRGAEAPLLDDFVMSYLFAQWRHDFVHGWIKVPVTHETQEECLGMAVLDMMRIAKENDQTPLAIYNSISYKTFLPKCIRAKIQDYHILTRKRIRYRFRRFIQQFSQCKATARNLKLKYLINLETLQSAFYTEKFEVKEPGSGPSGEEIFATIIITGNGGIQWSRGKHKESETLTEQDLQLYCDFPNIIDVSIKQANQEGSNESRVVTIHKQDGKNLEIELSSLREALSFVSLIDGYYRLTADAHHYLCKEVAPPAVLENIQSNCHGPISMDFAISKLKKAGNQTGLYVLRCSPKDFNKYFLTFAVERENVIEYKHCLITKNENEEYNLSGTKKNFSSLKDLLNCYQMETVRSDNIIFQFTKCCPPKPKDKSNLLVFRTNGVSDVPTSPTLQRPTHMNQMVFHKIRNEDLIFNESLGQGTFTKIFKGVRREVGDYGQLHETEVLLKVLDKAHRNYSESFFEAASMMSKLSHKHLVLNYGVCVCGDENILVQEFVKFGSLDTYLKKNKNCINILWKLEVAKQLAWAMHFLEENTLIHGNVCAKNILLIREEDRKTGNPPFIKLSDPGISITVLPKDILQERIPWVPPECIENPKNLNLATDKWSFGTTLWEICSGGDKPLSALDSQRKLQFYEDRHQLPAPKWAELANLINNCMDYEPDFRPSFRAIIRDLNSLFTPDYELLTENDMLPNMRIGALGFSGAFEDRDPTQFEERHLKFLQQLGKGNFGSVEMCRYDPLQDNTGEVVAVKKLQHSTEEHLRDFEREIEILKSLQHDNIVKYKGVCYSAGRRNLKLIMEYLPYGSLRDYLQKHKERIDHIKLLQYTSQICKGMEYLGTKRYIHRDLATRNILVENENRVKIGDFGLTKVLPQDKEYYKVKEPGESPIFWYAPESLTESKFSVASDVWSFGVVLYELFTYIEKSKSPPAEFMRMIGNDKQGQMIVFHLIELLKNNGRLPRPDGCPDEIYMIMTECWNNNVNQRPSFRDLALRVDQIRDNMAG
Chain of Macrophage colony-stimulating factor 1 receptor (Homo sapiens) (P07333 whole entry): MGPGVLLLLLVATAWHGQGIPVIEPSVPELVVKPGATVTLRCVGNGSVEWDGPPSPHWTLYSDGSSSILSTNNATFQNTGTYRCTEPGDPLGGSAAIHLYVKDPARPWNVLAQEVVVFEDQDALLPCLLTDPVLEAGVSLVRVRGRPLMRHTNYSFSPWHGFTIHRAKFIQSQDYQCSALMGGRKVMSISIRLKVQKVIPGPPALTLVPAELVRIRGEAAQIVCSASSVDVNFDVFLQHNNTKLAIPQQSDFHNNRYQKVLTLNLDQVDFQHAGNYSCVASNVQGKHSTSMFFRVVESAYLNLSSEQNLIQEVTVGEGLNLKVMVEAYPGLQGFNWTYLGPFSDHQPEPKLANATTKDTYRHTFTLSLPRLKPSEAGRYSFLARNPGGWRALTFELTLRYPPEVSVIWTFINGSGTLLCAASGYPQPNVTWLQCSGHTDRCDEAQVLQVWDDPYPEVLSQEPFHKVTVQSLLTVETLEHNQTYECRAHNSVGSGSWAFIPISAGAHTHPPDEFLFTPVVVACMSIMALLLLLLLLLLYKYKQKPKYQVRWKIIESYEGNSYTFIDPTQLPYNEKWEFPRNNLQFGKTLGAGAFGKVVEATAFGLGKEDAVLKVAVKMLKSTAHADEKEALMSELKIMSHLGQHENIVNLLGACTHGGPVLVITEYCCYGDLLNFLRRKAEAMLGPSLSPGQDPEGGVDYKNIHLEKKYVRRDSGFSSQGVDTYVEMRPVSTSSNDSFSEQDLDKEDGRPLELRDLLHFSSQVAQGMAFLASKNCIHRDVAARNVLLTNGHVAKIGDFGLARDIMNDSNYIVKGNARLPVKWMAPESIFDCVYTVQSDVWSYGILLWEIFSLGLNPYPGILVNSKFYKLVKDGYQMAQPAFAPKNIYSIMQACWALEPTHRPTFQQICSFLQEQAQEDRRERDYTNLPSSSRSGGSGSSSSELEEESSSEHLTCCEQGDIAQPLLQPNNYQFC

With `COC(=O)C1CCC(Nc2cnc3cc(OC)c(OC)cc3n2)CC1` (stereo not drawn), the pIC50 in [1] is 7.31.

`COc1cc2ncc(NC3CCC(C(N)=O)CC3)nc2cc1OC` (stereo not drawn): the pIC50 in series [1] was 6.03.

Regarding `COc1cc2ncc(N[C@H]3CC[C@H](O)CC3)nc2cc1OC`, the pIC50 was less than 4.30 in [2], 6.41 in series [4], less than 5.00 in [8] and less than 4.30 in [12]. The bioavailability in series [3] was 72%; in [15] it was 82%. Further, the inhibition in [5] came to 17%; in series [6], 3%; in series [9], 0%; in series [10], 54%; in series [11], 2%; in [13], 0%. The inhibition in series [14] amounted to 7%. Besides, in series [7], the half-maximal inhibitory concentration (IC50) is more than 50000 nM.

`COc1cc2ncc(N[C@H]3CC[C@@H](O)[C@H](C)C3)nc2cc1OC`: in series [16], the inhibition was 5%. Besides, the pIC50 in the series on HASMC was less than 5.00.

In [1], `COc1cc2ncc(N[C@H]3CC[C@H](C(=O)OC)CC3)nc2cc1OC` showed a negative-log IC50 (pIC50) of 6.46.

On to `COc1cc2ncc(N[C@@H]3CC4CC3C[C@H]4O)nc2cc1OC` (stereo partly drawn), for which the pIC50 was 6.79 with HASMC and 7.62 in [1].

Consider `COc1cc2ncc(NC3CCCC(N)C3)nc2cc1OC` (stereo not drawn), for which the inhibition in series [16] is -9%.

As for `CNC(=O)C1CCC(Nc2cnc3cc(OC)c(OC)cc3n2)CC1` (stereo not drawn), the pIC50 in series [1] was 5.51.

Take `COc1cc2ncc(NC3CCC(C(=O)O)CC3)nc2cc1OC` (stereo not drawn): the inhibition in series [16] was 15%.

On to `COc1cc2ncc(NC3CCCCC3)nc2cc1OC`, for which the bioavailability in series [17] turned out to be 16%; in series [18] it was 17%.

With `COc1cc2ncc(NC3CCC(C(=O)N4CCN(C)CC4)CC3)nc2cc1OC` (stereo not drawn), in series [16], the inhibition amounted to 10%.

For `COc1cc2cc(-c3ccsc3)cnc2cc1OC`, the bioavailability worked out at 21% in series [17] and 49% in series [18].

With `COc1cc2ncc(N[C@@H]3CC[C@H](O)[C@@H](C)C3)nc2cc1OC`, the figures for the negative logarithm of the IC50 (pIC50) (with HASMC; in series [1]) were 6.87 and 7.74, respectively.

`COc1cc2ncc(N[C@H]3CC[C@@H](C(=O)OC)CC3)nc2cc1OC` had a pIC50 in series [1] of 7.55.

Consider `COc1cc2ncc(N3C(=O)C4CCC3CC4)nc2cc1OC`, for which, in series [19], the inhibition was determined as 14%.

These data come from ChEMBL document CHEMBL1136216, “Potent quinoxaline-based inhibitors of PDGF receptor tyrosine kinase activity. Part 2: the synthesis and biological activities of RPR127963 an orally bioavailable inhibitor” (Bioorg Med Chem Lett, 2003).
